The record followed here is patent US20110178134A1, “Novel phenyl-substituted imidazolidines, process for preparation thereof, medicaments comprising said compounds and use thereof” (SANOFI-AVENTIS, priority 2008, published 2011).

Where two headings read alike, the source gives them in different places. Some results are limits rather than exact numbers.

Test [1] concerns the target T1, human androgen receptor (hAR) (Homo sapiens, UniProt P10275, T878A).
T1 construct: for the preparation of cytosolic receptor protein, the androgen-sensitive human prostate adenocarcinoma cell line LNCaP was used; endogenous in cells; host or cells: LNCaP (human prostate adenocarcinoma) cell cytosol fraction
T1 sequence (P10275 1-920 T878A): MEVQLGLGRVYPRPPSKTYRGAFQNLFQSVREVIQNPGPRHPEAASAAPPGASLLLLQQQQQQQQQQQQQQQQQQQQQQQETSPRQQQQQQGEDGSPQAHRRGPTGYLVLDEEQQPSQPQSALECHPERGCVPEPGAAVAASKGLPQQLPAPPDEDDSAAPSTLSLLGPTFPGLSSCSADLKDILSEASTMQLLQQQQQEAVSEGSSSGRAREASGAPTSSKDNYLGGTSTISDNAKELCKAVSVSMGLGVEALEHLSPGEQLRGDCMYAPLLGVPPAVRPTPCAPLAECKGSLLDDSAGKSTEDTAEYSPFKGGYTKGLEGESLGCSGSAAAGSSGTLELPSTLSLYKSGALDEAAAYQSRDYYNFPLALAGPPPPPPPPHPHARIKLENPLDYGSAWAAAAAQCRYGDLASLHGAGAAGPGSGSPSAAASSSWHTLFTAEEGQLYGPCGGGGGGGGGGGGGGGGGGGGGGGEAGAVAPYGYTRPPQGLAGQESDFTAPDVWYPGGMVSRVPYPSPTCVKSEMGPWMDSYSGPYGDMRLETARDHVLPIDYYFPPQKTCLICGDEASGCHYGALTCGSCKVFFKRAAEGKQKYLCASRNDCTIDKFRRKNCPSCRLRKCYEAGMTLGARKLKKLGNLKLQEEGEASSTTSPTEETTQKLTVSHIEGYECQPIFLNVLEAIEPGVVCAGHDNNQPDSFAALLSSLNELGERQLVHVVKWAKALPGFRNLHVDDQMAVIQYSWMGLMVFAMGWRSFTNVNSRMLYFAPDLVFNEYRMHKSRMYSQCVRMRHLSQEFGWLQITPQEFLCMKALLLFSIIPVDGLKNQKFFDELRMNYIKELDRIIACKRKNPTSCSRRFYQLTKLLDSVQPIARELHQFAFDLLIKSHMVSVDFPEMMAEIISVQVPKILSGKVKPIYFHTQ
In words: Binding assay with human androgen receptor, [3H]methyltrienolone, LNCaP cytosol. Conditions: for inhibition at 1 µM / inhibition at 10 µM: inhibition of [3H]methyltrienolone binding; for inhibition at 1 µM: compound 1 μM; for inhibition at 10 µM: compound 10 μM. The method, then:
Binding Assay with Human Androgen Receptor:
The binding assays on the androgen receptor were conducted according to the method of D. T. Zava et al. (1979) (“Androgen Receptor Assay with [^3H]Methyltrienolone (R1881) in the Presence of Progesterone Receptor”, Endocrinology, 104, 1007-1012). The radioactive ligand used for the binding measurement was [^3H]methyltrienolone and the reference substance was the same compound in unmarked (=nonradioactive) form. To determine the unspecific proportion of binding, 1 μM mibolerone was used. In a departure from the method cited, for the preparation of cytosolic receptor protein, the androgen-sensitive human prostate adenocarcinoma cell line LNCaP was used. For the analysis, aliquots of a cell cytosol fraction (proceeding from 10^6 cells per analysis point) were incubated, in a buffer in the presence or absence of test substance, with 0.5 nM [^3H]methyltrienolone at 4° C. for 24 hours (25 mM HEPES/Tris, 1 mM EDTA, 10 mM Na2MoO4, 2 mM DTT, 10% glycerol; pH 7.4). The samples were then mixed with 400 μl each of an activated carbon suspension and the mixtures were centrifuged (10 minutes, 8000×g). Supernatants were withdrawn and mixed with 5 ml each of scintillation cocktail, and the radioactivity of the samples was measured in a scintillation counter. Specific ligand binding to the receptors was calculated as the difference between total binding and the unspecific binding in the presence of an excess of nonmarked ligand. End results were represented as percent specific binding compared to the binding of control substance.
The strength of the binding to the human androgen receptor is expressed as percent inhibition of the binding of [^3H]methyltrienolone to the human androgen receptor. The concentration of the compounds examined is 1 μM or 10 μM. The greater the numerical value of “percent inhibition at 1 or 10 μM”, the stronger is the binding of the test substance to the human androgen receptor. Alternatively, the Ki value is reported; the greater this value compared to the Ki value based on the binding to the hCB1R, the lower is the binding to the hAR.

Test [2] concerns the target human cannabinoid receptor 1 (hCB1R) (Homo sapiens, UniProt P21554). In words: Binding to human cannabinoid receptor 1 (hCB1R), [3H]-SR141716A displacement. Here is the method:
Binding to Human Cannabinoid Receptor 1 (hCB1R):
Test compounds: The compounds (3 μl, 10 mM, 100% DMSO), pipetted into 96-well PP microtiter plates, were diluted with 27 μl of 100% DMSO (dimethyl sulfoxide). Proceeding from this solution, further 3-fold dilution steps were undertaken by transferring […] in each case to a new PP microtiter plate and adding a further 20 μl of 100% DMSO. In each case 6 μl of these solutions were transferred into new 96-well PP microtiter plates and made up with 144 μl of assay buffer. The end concentrations ranged from 10 μM to 0.005 μM.
Negative control: AM 251, dissolved in assay buffer with 1% DMSO, was added to the dilution series in the microtiter plates as a control. The end concentration was 1 μM.
Blank control: assay buffer with 1% DMSO was added to the dilution series of the microtiter plates as a blank control.
Summary of the Assay Parameters:
High control: ^3H binding without addition of the compound
Low control: ^3H binding in the presence of 1 μM AM 251
The values were calculated using the corrected raw data.
The values reported were obtained as average values of a double determination. The IC50 values were calculated from the measurements with the program Xlfit, formula 205. Ki values were obtained from the IC50 and Kd values utilizing the Cheng-Prusoff equation: […]
Literature: Cheng, Y.-C., and Prusoff, W. H. (1973) Biochem. Pharmacol 22, 3099-3108

The mark [3] stands for this setting: CHO-K1/cannabinoid CB1 protein, 0.5 nM [3H]-SR141716A, Cheng-Prusoff, read-out: hCB1R, binding Ki.

Sequence of human cannabinoid receptor 1 (hCB1R) (P21554 whole entry): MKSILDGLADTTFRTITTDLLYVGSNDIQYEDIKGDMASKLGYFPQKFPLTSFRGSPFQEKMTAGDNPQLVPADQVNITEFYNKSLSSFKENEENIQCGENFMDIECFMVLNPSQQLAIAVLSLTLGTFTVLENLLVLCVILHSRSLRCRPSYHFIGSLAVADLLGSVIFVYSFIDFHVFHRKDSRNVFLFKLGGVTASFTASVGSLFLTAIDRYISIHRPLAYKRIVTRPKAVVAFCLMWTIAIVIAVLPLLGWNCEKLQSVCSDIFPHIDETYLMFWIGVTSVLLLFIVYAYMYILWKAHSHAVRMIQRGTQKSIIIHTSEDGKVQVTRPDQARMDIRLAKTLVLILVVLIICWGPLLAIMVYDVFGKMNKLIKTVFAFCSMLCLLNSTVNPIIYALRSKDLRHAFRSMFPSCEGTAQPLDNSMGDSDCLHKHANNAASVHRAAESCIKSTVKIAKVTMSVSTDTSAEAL

For `CC1(C)C(=O)N(c2ccc(C#N)c(C(F)(F)F)c2)C(=O)N1Cc1ccc(OCc2ccccc2)c(OCc2ccccc2)c1` [Example 33, 4-[3-(3,4-bis(benzyloxy)benzyl)-4,4-dimethyl-2,5-dioxoimidazolidin-1-yl]-2-trifluoromethylbenzonitrile], the Ki in test [1] (reported instead of % inhibition in table 5, read-out: hAR, Ki) was greater than 1000 nM; in test [2] it was 26 nM.
In the case of `CC1(C)C(=O)N(c2ccc(C#N)c(C(F)(F)F)c2)C(=O)N1Cc1ccccc1Oc1ccccc1` [Example 34, 4-[4,4-dimethyl-2,5-dioxo-3-(2-phenoxybenzyl)imidazolidin-1-yl]-2-trifluoromethylbenzonitrile], in test [1], at 1 µM the inhibition was 30%. The compound further came in with a Ki in test [2] of 6 nM.
In turn, `CC1(C)C(=O)N(c2ccc(C#N)c(C(F)(F)F)c2)C(=O)N1Cc1ccc(OC(F)(F)F)cc1` [Example 2, 4-[4,4-dimethyl-2,5-dioxo-3-(4-trifluoromethoxybenzyl)imidazolidin-1-yl]-2-trifluoromethylbenzonitrile] returned an inhibition at 1 µM in test [1] of 20%. Besides, the Ki in test [2] (setting [3]) came to 200 nM.
As to `CC1(C)C(=O)N(c2ccc(C#N)c(C(F)(F)F)c2)C(=O)N1Cc1ccc(C(F)(F)F)cc1` [4-[4,4-dimethyl-2,5-dioxo-3-(4-trifluoromethylbenzyl)-imidazolidin-1-yl]-2-trifluoromethylbenzonitrile, reference compound], the Ki in test [1] (read-out: Ki value based on binding to the human androgen receptor) turned out to be 96 nM; in test [2], 76 nM.
As for `CC1(C)C(=O)N(c2ccc(Cl)c(C(F)(F)F)c2)C(=O)N1Cc1ccc(OCc2ccccc2)c(OCc2ccccc2)c1` [Example 37], in test [1], 10 µM produced 4% inhibition. The Ki in test [2] (setting [3]) came to 219 nM.
Consider `CC1(C)C(=O)N(c2ccc(C#N)c(C(F)(F)F)c2)C(=O)N1Cc1ccc(C(F)(F)F)nc1` [Example 6, 4-[4,4-dimethyl-2,5-dioxo-3-(6-trifluoromethylpyridin-3-ylmethyl)-imidazolidin-1-yl]-2-trifluoromethylbenzonitrile], for which 1 µM produced 84% inhibition in test [1]. In test [2], this compound came in with a Ki of 11 nM.
Compound `CC1(C)C(=O)N(c2ccc(F)c(C(F)(F)F)c2)C(=O)N1Cc1ccc(F)cc1NS(N)(=O)=O` [Example 52, N-{5-fluoro-2-[3-(4-fluoro-3-trifluoromethylphenyl)-5,5-dimethyl-2,4-dioxoimidazolidin-1-ylmethyl]phenyl}sulfamide] had an inhibition at 1 µM in test [1] of 52%. In test [2], this compound showed a Ki of 41 nM.
With `CC1(C)C(=O)N(c2ccc(Cl)c(C(F)(F)F)c2)C(=O)N1Cc1cc(C(F)(F)F)cc(C(F)(F)F)c1` [Example 10, 1-(3,5-bis(trifluoromethyl)benzyl)-3-(4-chloro-3-trifluoromethylphenyl)-5,5-dimethylimidazolidine-2,4-dione], the inhibition at 1 µM in test [1] was found to be 3%. Further, the Ki in test [2] is 81 nM.
In test [1], `CC1(C)C(=O)N(c2ccc(C#N)c(C(F)(F)F)c2)C(=O)N1Cc1cccc(C(F)(F)F)c1` [Example 3, 4-[4,4-dimethyl-2,5-dioxo-3-(3-trifluoromethylbenzyl)imidazolidin-1-yl]-2-trifluoromethylbenzonitrile] registered an inhibition at 1 µM of 54%. Further, the Ki in test [2] (setting [3]) worked out at 127 nM.
In test [1], `CC1(C)C(=O)N(c2ccc(C#N)c(C(F)(F)F)c2)C(=O)N1Cc1cccc(S(F)(F)(F)(F)F)c1` [Example 11, 4-[4,4-dimethyl-2,5-dioxo-3-(3-pentafluorosulfanylbenzyl)imidazolidin-1-yl]-2-trifluoromethylbenzonitrile] displayed an inhibition at 1 µM of 39%. In test [2], this compound displayed a Ki of 17 nM.
For `CC1(C)C(=O)N(c2ccc(F)c(C(F)(F)F)c2)C(=O)N1Cc1cc(C(F)(F)F)cc(C(F)(F)F)c1` [Example 9, 1-(3,5-bis(trifluoromethyl)benzyl)-3-(4-fluoro-3-trifluoromethylphenyl)-5,5-dimethylimidazolidine-2,4-dione], the inhibition at 10 µM in test [1] is 3%. Besides, the Ki in test [2] (setting [3]) worked out at 295 nM.
In test [1], `CC1(C)C(=O)N(c2ccc(C#N)c(C(F)(F)F)c2)C(=O)N1Cc1cc(C(F)(F)F)cc(C(F)(F)F)c1` [Example 1, 4-[3-(3,5-bis(trifluoromethyl)benzyl)-4,4-dimethyl-2,5-dioxoimidazolidin-1-yl]-2-trifluoromethylbenzonitrile] registered an inhibition at 10 µM of 26%. The Ki in test [2] turned out to be 4 nM.
In test [1], `CC1(C)C(=O)N(c2ccc(C#N)c(C(F)(F)F)c2)C(=O)N1Cc1ccc(Cl)nc1` [Example 5, 4-[3-(6-chloropyridin-3-ylmethyl)-4,4-dimethyl-2,5-dioxoimidazolidin-1-yl]-2-trifluoromethylbenzonitrile] displayed an inhibition at 1 µM of 86%. The compound further showed a Ki in test [2] of 25 nM.
Turning to `CC1(C)C(=O)N(c2ccc(F)c(C(F)(F)F)c2)C(=O)N1Cc1ccc(C(F)(F)F)nc1` [Example 7, 3-(4-fluoro-3-trifluoromethylphenyl)-5,5-dimethyl-1-(6-trifluoromethyl-pyridin-3-ylmethyl)imidazolidine-2,4-dione], in test [1], the inhibition at 1 µM was 47%. Also, the Ki in test [2] (setting [3]) came out at 205 nM.
On the same counts, the results for `CC1(C)C(=O)N(c2ccc(Cl)c(C(F)(F)F)c2)C(=O)N1Cc1ccc(C(F)(F)F)nc1` [Example 8, 3-(4-chloro-3-trifluoromethylphenyl)-5,5-dimethyl-1-(6-trifluoromethyl-pyridin-3-ylmethyl)imidazolidine-2,4-dione] are 53% and 227 nM.
Consider `CC1(C)C(=O)N(c2ccc(F)c(C(F)(F)F)c2)C(=O)N1Cc1ccccc1Oc1ccccc1` [Example 44, 3-(4-fluoro-3-trifluoromethylphenyl)-5,5-dimethyl-1-(2-phenoxybenzyl)imidazolidine-2,4-dione], for which at 10 µM the inhibition in test [1] was 15%. For the same compound, the Ki in test [2] (setting [3]) is 100 nM.
